Assays:
murine M2 macrophage [1] = experiment: Macrophage phenotype by flow cytometry (CD86, CD206) after drug-induced differentiation; assay type: cell-based; settings: conditions of chart 2, p<0.05, FIG. 3
Method: Use PBS containing 0.5% BSA to flush out bone marrow cells from murine (C57BL/6J, 8-20 weeks, Taiwan National Laboratory Animal Center) femur, then use Ficoll-Hypaque (GE healthcare, SWEDEN) to isolate monocytes.
Then, incubate 2×10^6 monocytes in 50 ng/ml M-CSF contained RPMI 1640 (10% FCS) medium under 37° c., 5% CO2 for seven days to induce M2 macrophage polarization. On the eighth day, collect 2×10^5 M2 macrophage and incubate them in RPMI 1640 (10% FCS) medium with Baicalin (50 μM, Tokyo Chemical Industry, JAPAN) for 24 hours. Baicalin will induce M2 macrophage to differentiate into M2C macrophage.
(§1) Embodiment 1 is prepared by the steps described above, isolate monocytes from murine bone marrow and use M-CSF to induce differentiation of M2 macrophage, and then use baicalin to induce M2C macrophage polarization. In comparison 1, incubate murine M2 macrophage in RPMI 1640 (10% FCS) containing LPS (lipopolysaccharide, 1 μg/ml, Sigma-Aldrich) for 2 hours. In comparison 2, incubate murine M2 macrophage in medium containing IL-4 ([…] Guidance System, Cambridge, UK) for 24 hours. The control group of M2 macrophage is incubated in RPMI 1640 (10% FCS) without any drugs. The conditions are shown below in chart 2.
After induced differentiation is complete, use flow cytometry to analyse the macrophage phenotype, in the meantime, also use real time PCR (qPCR) to observe mRNA expression level of each gene.
(§2) FIG. 2˜4 show results of macrophage phenotypes analysed by flow cytometry.

murine M2 macrophage [2] = experiment: Macrophage cell morphology under microscope; assay type: cell-based; settings: versus M-CSF control and comparison 2, FIG. 4
Method: as §1, §2

[3] = test system: M1 and M2 macrophage derived from Raw264.7 cell line; experiment: mRNA expression of VEGF family, VEGF receptor and PD-L1 by RT-qPCR in Raw264.7 derived macrophages; assay type: cell-based, murine
Method: In this example, experiment was performed to observe if baicalin can induce expression of VEGF family and PD-L1 in M1 and M2 macrophage derived from Raw264.7 cell line (ATCC, USA). M1 macrophage obtained from treating Raw264.7 macrophage with LPS (1 μg/ml, Sigma-Aldrich) for 2 hours, and M0 macrophage (control group) cultured in simple RPMI 1640 (10% FCS) medium, are respectively cultured in RPMI 1640 (10% FCS) medium with either Baicalin (50 μM, Tokyo Chemical Industry, Japan) or […] (10 ng/ml, Cell Guidance System, Cambridge, UK). Collect the cells after 24/48/72 hours of cell culturing. Then observe the mRNA expression level of VEGF family, VEGF receptor and PD-L1 using reverse transcription-real time PCR (RT-qPCR).

Raw264.7 macrophages = experiment: VEGF-A protein in conditioned medium by ELISA; assay type: cell-based, murine; settings: baicalin 50 μM, 48 hours, p<0.05, FIG. 13
Method: In this example, experiment was performed to further examine whether […] cells treated with baicalin will express VEGF-A protein. Add LPS (1 μg/ml), baicalin (50 μM) and IL-4 (10 ng/ml) respectively to medium culturing […]; Raw264.7 macrophages (ATCC, USA) and culture for 48 hours. Collect the conditioned medium and quantify VEGF-A protein by EUSA (Mouse VEGF EUSA Kit, Code: EK0541, BosterBio, CA, USA). Control group is cultured in the medium (90% DMEM+10% FBS) without any mentioned drugs. […] […] macrophage treated with baicalin can promote macrophage to secrete VEGF-A protein and the efficacy is greater than IL-4.

murine M2 macrophage [4] = experiment: Macrophage surface protein MERTK expression by flow cytometry; assay type: cell-based; settings: versus control, LPS and IL-4 groups, p<0.05, FIG. 15
Method: as §1
In this example, experiment was performed to further test whether M2C treated by baicalin can express MERTK protein. Using flow cytometry to evaluate macrophage surface protein MERTK expression level in embodiment 1, comparison 1, 2, and the control group is cultured in RPMI 1640 (10% FCS) without any drugs. Result was shown in FIG. 14, after fluorescence staining, fluorescence MERTK marker binding was detected in approximately 80% of cells in every group. […] M2C cells treated with baicalin can promote macrophages to express MERTK protein, and the efficacy is greater than LPS and IL-4.

murine M2 macrophage [5] = experiment: Phagocytosis of FITC-Latex beads with PE-anti-MERTK staining (flow cytometry, fluorescence microscopy); assay type: cell-based
Method: In this example, experiment was performed to evaluate the effect of baicalin induced differentiated […] macrophages in promoting phagocytosis. Treatment conditions of drugs in each group is listed in chart 2, and control group is cultured in RPMI1640 (10% FCS) without any drugs. After treatment, collect 5×10^5 treated cells respectively and add 50 μl FITC-Latex beads (Phagocytosis assay kit (IgG FITC), Cayman Chemical, USA.) to perform phagocytosis experiment for 24 hours, and then use PE-anti-MERTK antibody to mark the cells and observe the fluorescence expression with flow cytometry.

[6] = baicalin 50 μM, 24/48/72 hours, versus groups without baicalin, FIG. 10
[7] = versus IL-4 treated group, same treatment duration, p<0.05, FIG. 11

O=C(O)[C@H]1O[C@@H](Oc2cc3oc(-c4ccccc4)cc(=O)c3c(O)c2O)[C@H](O)[C@@H](O)[C@@H]1O [Baicalin]
percentage of cells expressing CD86 and CD206 (murine M2 macrophage [1]): lower than both comparison 1 and 2
morphology of macrophages (murine M2 macrophage [2]): ellipse instead of spindle shaped
VEGF-A mRNA expression level ([3]; baicalin 50 μM, 24/48/72 hours, versus M1, M2 macrophages without baicalin treatment (LPS, control), FIG. 9): higher
VEGFR-1 mRNA expression level [3, 6]: higher
VEGFR-2 mRNA expression level [3, 6]: higher
VEGF-A mRNA expression level [3, 7]: significantly higher
VEGFR1 mRNA expression level [3, 7]: significantly higher
VEGFR2 mRNA expression level [3, 7]: significantly higher
PD-L1 mRNA expression level ([3]; versus M1, M2 macrophages without baicalin treatment, p<0.05, FIG. 12): higher
VEGF-A protein detected in conditioned medium (Raw264.7 macrophages): higher than control group and other groups treated with other drugs
average MERTK expression level in one single cell (mean fluorescence intensity) (murine M2 macrophage [4]): two times higher
percentage of cells that phagocytosed the beads (murine M2 macrophage [5]; FITC-Latex beads 24 hours, FIG. 16): approximately 30%
percentage of cells that phagocytosed beads and also express MERTK protein (murine M2 macrophage [5]; FITC-Latex beads 24 hours, PE-anti-MERTK, FIG. 17): 30%
MERTK fluorescence distribution of cells after phagocytosing FITC-Latex beads (murine M2 macrophage [5]; fluorescence microscope, PE-MERTK, FIG. 18): express MERTK on cell membrane

— patent US20190055517A1, “Cell Line of M2c Macrophage and Its Applications” (National Pingtung University of Science and Technology, priority 2017, published 2019)
